System: histone H3.1 modifications in HEK-293 cells
Experiment: Middle-down mass spectrometry of histone H3.1 from HEK-293 cells ± KDAC inhibition (H3K9 methylation, {K9ac, K14ac, K18ac} proteoforms, H3K4 methylation)
Type: cell-based
Conditions: for 3ac including {K9ac, K14ac, K18ac} / 4ac including {K9ac, K14ac, K18ac} / 5ac including {K9ac, K14ac, K18ac}: HEK-293, H3.1 butyrate treated; for H3K9me0 / H3K9me1 / H3K9me2 / H3K9me3: HEK-293, butyrate treated
Protocol: Figure 3. […] (A) Occupancy of H3K4 methyl states (me0-1-2-3) within each H3 acetyl state (0ac to 5ac) in asynchronous MCF-7 cells. (B) Occupancy of H3K4 methyl states within each H3 acetyl state after butyrate treatment (60 min). Asterisks represent p-values <0.05. […] Each spectrum is an average of MS2 spectra of the indicated H3 acetyl states after 60 min of butyrate treatment. K4 occupancy stoichiometry is directly correlated with H3 acetylation state and the targeted MS approach provides excellent signal-to-noise for confident quantitation. […] See Methods for further information on data acquisition and analysis. All data were collected in biological triplicate with error bars representing SEM. Figure 3—figure supplement 1. H3 acetylation states with sodium butyrate treatment. (A - B) Each acetyl state of acid-extracted H3 from 0ac to 5ac is represented as a percent of total H3 before/after 60 min treatment of asynchronous MCF-7 cells with 5 mM sodium butyrate. (C) Occupancy of H3K4 methyl states (me0-1-2-3) within each H3 acetyl state (0ac to 5ac) in asynchronous HEK-293 cells. (D) Occupancy of H3K4 methyl states within each H3 acetyl state after butyrate treatment (120 min) in asynchronous HEK-293 cells. (E) Percentage of (K9ac, K14ac, K18ac) proteoforms within 3ac to 5ac acetyl states of H3.1 ± butyrate treatment in HEK-293 cells. N=3 and error bars are SEM for all data. [drawing 3]
MCF-7 breast cancer cells (ATCC HTB-22) were grown in MEM (Gibco) supplemented with 10% fetal bovine serum (VWR), 100 I.U. penicillin, 100 µg/mL streptomycin (Corning), 0.01 mg/mL human recombinant insulin (Gibco), and 5 µg/mL plasmocin (Invivogen) at 37 °C and 5% CO2. HEK-293 (ATCC CRL-1573) was grown in DMEM (Gibco) supplemented with 10% fetal bovine serum (Corning), 100 I.U. penicillin, and 100 µg/mL streptomycin (Gibco) at 37 °C and 5% CO2. Both cell lines were authenticated via STR profiling and confirmed to be Mycoplasma negative.
For mass spectrometric (MS) analysis ± KDAC inhibition, cells were cultured in 150 mm dishes to ~80% confluence and treated with 5 mM sodium butyrate (or equivalent volume of water) in triplicate for 0, 10, 20, 30, 60, 120 min. […] Histones were acid extracted after nuclei isolation as described ([Holt et al., 2021]). Isolated histones were resuspended in 85 µL 5% acetonitrile, 0.2% trifluoroacetic acid (TFA), and resolved by offline high-performance liquid chromatography (HPLC) as described ([Holt et al., 2021]). […] After chromatographic separation and fraction collection, histone H3.1 was selected, diluted in 100 mM ammonium acetate (pH = 4), and digested with Glu-C protease (Roche) at 10:1 protein:enzyme for 1 hr at room temperature prior to mass spectrometric analysis.
The digested samples were diluted to 2 µg/µL. Online HPLC was performed on a U3000 RSLC nano Pro-flow system using a C3 column (Zorbax 300 SB-C3, 5 µm; Agilent). Samples were maintained at 4 °C and 1 µL injected for each analysis using a microliter pickup. […] The column eluant was introduced into an Orbitrap Fusion Lumos mass spectrometer (Thermo Fisher) by nano-electrospray ionization. A static spray voltage of 1900 V and an ion transfer tube temperature of 320 °C were set for the source.
A Fusion Lumos mass spectrometer was used to generate MS data. The 9th charge state of histone H3 was targeted for analysis. MS1 analysis was acquired in the orbitrap with a normal mass range and a 60 k resolution setting in positive ion mode. An Automatic Gain Control (AGC) target of 5.0E5 with a 200 ms maximum injection time, three microscans, and a scan range of 585–640 m/z was used to identify desired ions for fragmentation. MS2 acquisition was performed in both orbitrap and ion trap modes. Both modes used electron transfer dissociation (ETD), a reaction time of 18ms, and an injection time of 200 ms. […]

SMILES: CCCC(=O)O [sodium butyrate]
- 3ac including {K9ac, K14ac, K18ac}: 1.6743 Percentage
- 4ac including {K9ac, K14ac, K18ac}: 16.6357 Percentage
- 5ac including {K9ac, K14ac, K18ac}: 100 Percentage
- 3ac including {K9ac, K14ac, K18ac} (column 1 of 3): 1.334 Percentage
- 4ac including {K9ac, K14ac, K18ac} (column 1 of 3): 17.3973 Percentage
- 5ac including {K9ac, K14ac, K18ac} (column 1 of 3): 100 Percentage
- 3ac including {K9ac, K14ac, K18ac} (column 2 of 3): 1.24 Percentage
- 4ac including {K9ac, K14ac, K18ac} (column 2 of 3): 17.858 Percentage
- 5ac including {K9ac, K14ac, K18ac} (column 2 of 3): 100 Percentage
- H3K9me0 (0ac): 48.8895 Percentage
- H3K9me1 (0ac): 7.899 Percentage
- H3K9me2 (0ac): 29.443 Percentage
- H3K9me3 (0ac): 13.7682 Percentage
- H3K9me0 (0ac, column 1 of 3): 54.4348 Percentage
- H3K9me1 (0ac, column 1 of 3): 4.2113 Percentage
- H3K9me2 (0ac, column 1 of 3): 27.4814 Percentage
- H3K9me3 (0ac, column 1 of 3): 13.8725 Percentage
- H3K9me0 (0ac, column 2 of 3): 51.9841 Percentage
- H3K9me1 (0ac, column 2 of 3): 5.137 Percentage
- H3K9me2 (0ac, column 2 of 3): 26.9782 Percentage
- H3K9me3 (0ac, column 2 of 3): 15.9004 Percentage
- H3K9me0 (1ac): 27.5434 Percentage
- H3K9me1 (1ac): 15.9623 Percentage
- H3K9me2 (1ac): 38.0917 Percentage
- H3K9me3 (1ac): 17.0037 Percentage
- H3K9me0 (1ac, column 1 of 3): 28.711 Percentage
- H3K9me1 (1ac, column 1 of 3): 14.4169 Percentage
- H3K9me2 (1ac, column 1 of 3): 39.3301 Percentage
- H3K9me3 (1ac, column 1 of 3): 15.8799 Percentage
- H3K9me0 (1ac, column 2 of 3): 28.8744 Percentage
- H3K9me1 (1ac, column 2 of 3): 14.4284 Percentage
- H3K9me2 (1ac, column 2 of 3): 38.0038 Percentage
- H3K9me3 (1ac, column 2 of 3): 16.6818 Percentage
- H3K9me0 (2ac): 27.9258 Percentage
- H3K9me1 (2ac): 21.3235 Percentage
- H3K9me2 (2ac): 37.139 Percentage
- H3K9me3 (2ac): 9.818 Percentage
- H3K9me0 (2ac, column 1 of 3): 28.9582 Percentage
- H3K9me1 (2ac, column 1 of 3): 21.0866 Percentage
- H3K9me2 (2ac, column 1 of 3): 35.8684 Percentage
- H3K9me3 (2ac, column 1 of 3): 10.0575 Percentage
- H3K9me0 (2ac, column 2 of 3): 26.6449 Percentage
- H3K9me1 (2ac, column 2 of 3): 22.0491 Percentage
- H3K9me2 (2ac, column 2 of 3): 35.8906 Percentage
- H3K9me3 (2ac, column 2 of 3): 10.993 Percentage
- H3K9me0 (3ac): 21.6496 Percentage
- H3K9me1 (3ac): 12.8486 Percentage
- H3K9me2 (3ac): 25.9132 Percentage
- H3K9me3 (3ac): 9.297 Percentage
- H3K9me0 (3ac, column 1 of 3): 21.2886 Percentage
- H3K9me1 (3ac, column 1 of 3): 12.9304 Percentage
- H3K9me2 (3ac, column 1 of 3): 26.508 Percentage
- H3K9me3 (3ac, column 1 of 3): 10.2618 Percentage
- H3K9me0 (3ac, column 2 of 3): 21.713 Percentage
- H3K9me1 (3ac, column 2 of 3): 11.1466 Percentage
- H3K9me2 (3ac, column 2 of 3): 27.8034 Percentage
- H3K9me3 (3ac, column 2 of 3): 10.4504 Percentage
- H3K9me0 (4ac): 4.833 Percentage
- H3K9me1 (4ac): 7.36 Percentage
- H3K9me2 (4ac): 8.881 Percentage
- H3K9me3 (4ac): 1.604 Percentage
- H3K9me0 (4ac, column 1 of 3): 5.043 Percentage
- H3K9me1 (4ac, column 1 of 3): 6.813 Percentage
- H3K9me2 (4ac, column 1 of 3): 10.053 Percentage
- H3K9me3 (4ac, column 1 of 3): 3.009 Percentage
- H3K9me0 (4ac, column 2 of 3): 4.13 Percentage
- H3K9me1 (4ac, column 2 of 3): 7.856 Percentage
- H3K9me2 (4ac, column 2 of 3): 9.753 Percentage
- H3K9me3 (4ac, column 2 of 3): 2.246 Percentage
- H3K9me0 (5ac): 0 Percentage
- H3K9me1 (5ac): 0 Percentage
- H3K9me2 (5ac): 0 Percentage
- H3K9me3 (5ac): 0 Percentage
- H3K9me0 (5ac, column 1 of 3): 0 Percentage
- H3K9me1 (5ac, column 1 of 3): 0 Percentage
- H3K9me2 (5ac, column 1 of 3): 0 Percentage
- H3K9me3 (5ac, column 1 of 3): 0 Percentage
- H3K9me0 (5ac, column 2 of 3): 0 Percentage
- H3K9me1 (5ac, column 2 of 3): 0 Percentage
- H3K9me2 (5ac, column 2 of 3): 0 Percentage
- H3K9me3 (5ac, column 2 of 3): 0 Percentage
- H3K9me3 on hyperacetylated H3 proteoforms, in words (HEK-293, ± butyrate): H3K9me3 did not accumulate with hyperacetylated H3 proteoforms
- {K9ac, K14ac, K18ac} in 5ac proteoforms, in words (HEK-293, ± butyrate): all penta-acetylated (5ac) H3 proteoforms consisted of acetylation at H3K9, K14, and K18 at minimum

From paper PMC10229121, “An acetylation-mediated chromatin switch governs H3K4 methylation read-write capability” (eLife, 2023)
